The source of these data is patent US20250388597A1, “BIFUNCTIONAL PHOTOCROSSLINKING PROBES FOR COVALENT CAPTURE OF PROTEIN-NUCLEIC ACID COMPLEXES IN CELLS” (UNIVERSITY OF SOUTHERN CALIFORNIA, priority 2022, published 2025).

For one experiment, the target named is T1, MEF2A/DNA complex (Homo sapiens, UniProt Q02078).
T1 construct: human MEF2A DBD (residues 2-95); made in house
T1 sequence (Q02078 2-95): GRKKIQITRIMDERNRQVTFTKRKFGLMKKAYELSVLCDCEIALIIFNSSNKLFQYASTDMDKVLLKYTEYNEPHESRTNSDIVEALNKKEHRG
Put plainly: In vitro photo-crosslinking of assembled MEF2/DNA complex, read on denaturing SDS/urea gel or agarose gel. Type of experiment: biochemical. To be noted: for formation of covalent MEF2/DNA crosslinked complex: probe + UV, denaturing gel. An excerpt:
In vitro assays have confirmed the success and the efficiency of the demo probe (AMT-LC-SDA) in crosslinking double strand DNA of various contents and DNA-binding protein human myocyte enhancer factor 2A (MEF2A) (1-95 aa) (FIG. 5C-FIG. 5E). The solid crosslinking is confirmed for the probe with UV photo crosslinking conditions by denaturing or digestive approaches such as running with 8.3 M urea gel, SDS gel, combined with sample with overnight digestion of proteinase K at 65 Celsius and denatured at high temperature of 95 Celsius with SDS loading dye. […] Under these harsh evaluation conditions, the protein got digested on the crosslinking complex thoroughly, yet the remaining crosslinked amino acids residuals still have made the DNA to be in a larger size and shifted clearly compared to other controls, which is indicated by the bold shaped arrow. Agarose gel was also used for its bigger pore size to estimate the crosslinking efficiency (UV 2 hrs), estimated by the amount of the left free DNA, our probe has reached around 30-60% efficiency (FIG. 5E), which is much higher than the UV-initiated protein DNA crosslinking without the use of a probe (10-20%) as reported in Nature Communications, volume 11, Article number: 3019 (2020). […] This further supports the idea of applying this probe for replacement of formaldehyde, it crosslinks the protein only within the proximity of nucleic acids, thereby largely reducing the random protein-protein crosslinking noise and helps to preserve the native state of protein epitopes.
The BFPX probe 4AMT-LC-SDA was synthesized with good yield by the NHS-amine chemistry using psoralen and diazirine derivatives (FIG. 5A, FIG. 5B). To test its photo crosslinking ability, human transcription factor MEF2A (the MADS-box/MEF2 domain) and double strand DNA containing a MEF2 binding site were used. We first used electrophoresis mobility shift assay (EMSA) to validate the activity of the purified recombinant MEF2A DNA-binding domain. After finding out the optimal protein to DNA ratio, the in vitro assembled MEF2/DNA complex was then subject to photocrosslinking in the presence or absence of the 4AMT-LC-SDA probe with or without UV illumination. Multiple other control experiments were carried out in parallel to test the specificity of photocrosslinking between the DNA and MEF2. Specifically, parameters such as protein/DNA amounts (1:[…]), ratio, UV time (10 m to 4 hrs), wavelength (320 to 360 nm), LV source (mercury long lamp, LED) and their distance to the reaction mixture have been optimized along the course. The MEF2 Protein and DNA were incubated first to mimic an in vivo binding mode and stoichiometry, and then the mixture was incubated with our 4AMT-LC-SDA probe to undergo UV illumination. The results were evaluated by running denaturing gels (SDS in FIG. 5D, or Urea in FIG. 5C) against the high temperature denatured reaction mixtures and checking the respective protein (silver stain) or DNA (FAM label) signals. To further rule out any other possible false positiveness during loading, proteinase K digestion was applied to all the samples including the negative controls with SDS at 65 degrees.

For the next experiment, the target named is T2, FOXP3 in HEK293T cells (Homo sapiens, UniProt Q9BZS1).
T2 construct: AVI tag (N); TEV site (N); expressed in transfected cells; host or cells: HEK293T
T2 sequence (Q9BZS1 1-431): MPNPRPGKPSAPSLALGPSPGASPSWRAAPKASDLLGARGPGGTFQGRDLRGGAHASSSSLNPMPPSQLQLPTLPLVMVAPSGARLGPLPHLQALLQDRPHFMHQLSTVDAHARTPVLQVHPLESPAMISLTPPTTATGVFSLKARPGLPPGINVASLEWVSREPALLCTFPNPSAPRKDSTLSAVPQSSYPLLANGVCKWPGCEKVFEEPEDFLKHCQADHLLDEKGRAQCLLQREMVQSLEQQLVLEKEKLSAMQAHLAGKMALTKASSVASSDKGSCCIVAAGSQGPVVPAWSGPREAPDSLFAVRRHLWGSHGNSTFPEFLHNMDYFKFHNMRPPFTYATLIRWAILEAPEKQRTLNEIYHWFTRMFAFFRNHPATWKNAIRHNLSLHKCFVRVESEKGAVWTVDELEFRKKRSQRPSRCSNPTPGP
Description: Capture of FLAG-tagged FOXP3 complexes in transfected HEK293T cells, whole cell lysate western blot. The format is cell-based. The following applies: for crosslinked FOXP3 complexes in probe and UV treated cells: SPB-AAD 10 or 100 μM, SPB-PEG4-AAD 100 μM, UV 2-5 min, vs controls lanes 1-3. Here is the method:
FIG. 14C depicts 10 cm plate HEK293T cells (˜8.8 million) were transfected with 2 μg AVI-TEV-FLAG-FOXP3 for about 48 hr. The cells were harvested into 1.6 ml room temperature 1×DPBS buffer (with no calcium and magnesium). The cells were aliquoted into 300 μl per sample and each sample was added SPB-AAD 10 μM (A10) or 100 μM (A100) or SPB-PEG4-AAD 100 μM (p100). The samples were incubated at 37° C. for 30 min in dark with rotation. The samples were transferred to the middle wells of a 24-well plate (Corning #3527). With 300 μl, the liquid is about 1.5 mm high in a 24-well plate well. The samples on the 24-well plate were then UV illuminated (LED Chip: 21.4 mm×21.4 mm, 365-370 nm, 30 Watt, sample distance (the bottom of the well plate to the lamp plane) is 4 cm, exposure time 2-5 min at 4 degree C.). The BFPX-treated cells were recovered from the 24-well plate and washed using 1×DPBS, centrifuged at 500 g for 5 min to pellet the cells and remove the DPBS buffer. 0.5 million of the BFPX-treated cells was added 20 μl 1×RIPA buffer, shake on ice for 15 min to lyse the cells. The lysis mixture was then added 3 μl 10× MNase, 0.25 μl RnaseA, 12.5 Unit Mnase, and ddw to 30 μl, incubated at 37° C. for 15 min. The lysis mixture was then added 6 μl SDS loading dye (2% SDS), boil 10 min at 95° C. Run at 200V for 40 minutes on 4%-15% SDS-PAGE gel and analyzed by western blot (Transfer at 18V (30 mA) overnight, block in 2% BSA in PBS for 45 min, Primary antibody: 1:2000 anti-FLAG; room temperature, 2 hr; Secondary antibody: anti mouse light chain kappa 1: 100,000; Femto Signal ECL).
Finally, we tested the capture of transcription factors bound to genomic DNA inside cells. HEK293T cells transfected with FLAG-tagged FOXP3 were treated with various combination of UV illumination and probe (SPB-AAD: A; and P: SPB-PEG4-AAD). The cells were lysed in 1×RIPA buffer followed by RNase and MNase treatment. The whole cell lysate were then added SDS loading dye, heated at 95 degree C. and run on a 4-15% SDS PAGE gel and analyzed by western blot using an anti-FLAG antibody.

As to `C#CCCC1(CCNC(=O)CCOCCOCCOCCC(=O)NCCNC(=O)CCCOc2c3occc3cc3ccc(=O)oc23)N=N1` [SPB-PEG3-AAD], the “crosslinking efficiency based on the DNA signal” value on MEF2A/DNA complex (MEF2/DNA, FIG. 8C lane 3 (10 μM probe) vs lane 1) is reported as “more than 90%”. Also, the “formation of covalent MEF2/DNA crosslinked complex” value on MEF2A/DNA complex is on record as “highly efficient crosslinking”.

In the case of `C#CCCC1(CCNC(=O)CCCOc2c3occc3cc3ccc(=O)oc23)N=N1` [SPB-AAD, N-(2-(3-(but-3-yn-1-yl)-3H-diazirin-3-yl)ethyl)-4-((7-oxo-7H-furo[3,2-g]chromen-9-yl)oxy)butanamide], the “dependence of crosslinked FOXP3 complex formation on probe concentration” value at FOXP3 in HEK293T cells (10 μM (lane 4) vs 100 μM (lane 6)) is given as “dosage dependent on probe concentration”. Further, at FOXP3 in HEK293T cells, the “crosslinked FOXP3 complexes in probe and UV treated cells” value is listed as “higher molecular weight species containing FOXP3 were observed”. Further, the “low probe concentration at which a significant amount of crosslinked protein complex was observed” value at MEF2A/DNA complex (MEF2/DNA, FIG. 7 lane 7, UV 365 nm) is 0.125 µM. Moreover, on MEF2A/DNA complex (MEF2/DNA, FIG. 7 lane 5 (12.5 μM probe) vs lanes 1-3, free DNA FAM signal, UV 365 nm), the “crosslinking efficiency (percentage of native protein-DNA complex being covalently crosslinked)” value is given as 80-90%. On MEF2A/DNA complex (MEF2/DNA, probe 100 μM), the “UV illumination time at which crosslinked complex was visible” value stood at 3 s. Further, the “UV illumination time at which crosslinking reached plateau” value on MEF2A/DNA complex (MEF2/DNA, probe 100 μM, plateau around 100 seconds and 5 min time points) is reported as “around 100 seconds”. The “formation of covalent MEF2/DNA crosslinked complex” value on MEF2A/DNA complex was “formation of complexes that run as larger molecular species than both free protein and DNA”.

`C#CCCC1(CCNC(=O)CCOCCOCCOCCOCCNC(=O)CCCOc2c3occc3cc3ccc(=O)oc23)N=N1` [SPB-PEG4-AAD, N-(2-(3-(but-3-yn-1-yl)-3H-diazirin-3-yl)ethyl)-1-(4-((7-oxo-7H-furo[3,2-g]chromen-9-yl)oxy)butanamido)-3,6,9,12-tetraoxapentadecan-15-amide]: the “crosslinked FOXP3 complexes in probe and UV treated cells” value at FOXP3 in HEK293T cells is on record as “higher molecular weight species containing FOXP3 were observed”.
